# Experiments:
# [1] = orally administered radiolabeled, rats; cited from earlier work
# [2] = administered intravenously, humans; cited from earlier work
# [3] = pig, in vivo
# Source text: Twenty-two domestic pigs weighing 15-20 kg were acclimated to lab conditions over 4 days. The pigs were fed a standard pig diet, which followed energetic requirements for these animals (Nutrient Requirements of Swine, 9th, 1998, Subcommittee on Swine Nutrition, National Research Council) and water ad libitum. Animals were randomly assigned into group C [6 pigs, receiving a glucosaline solution (Braun cat No 622647), 5% glucose, 0.9% NaCI], group G [8 pigs, receiving the same glucosaline solution fortified with 8 g/l of Gln, (Sigma cat No G-3126)], and group N [8 pigs, receiving the same glucosaline solution fortified with 10 g/l of NAQ, (Sigma cat No A-9125)]. Before surgery, animals were fasted 15 h. The day of experiment, animals were weighed and anaesthetized using Stresnil® and penthotal. […]
# The analysis for N-acetyl-L-glutamine was conducted as follows. […] The detection and quantification of N-acetyl-L-glutamine was monitored at 210 nm.
# The analysis for glutamine and glutamate was conducted as follows. […] After 1 minute the sample was diluted to 1 mL and injected into the HPLC system, consisting of a 2690 Separation Module, fluorescence detector and a SupelcoSil LC-18 column (250×4 mm, 3 micrometers). […] The detection and quantification of glutamate and glutamine was accomplished using an excitation wavelength of 250 nm and monitoring emission at 395 nm. […]
smiles,measurement,setting,value
CC(=O)N[C@@H](CCC(N)=O)C(=O)O [N-acetyl-L-glutamine],Absorption across the intestinal mucosa,[1],absorbed intact
same,Dose excreted in the urine,[2],20-40%
same,"Glutamine in portal blood, N group versus G group",[3],no significant differences between G and N
